Results on 1 compound are retold here after US20240360186A1, “Treatment Of Integrin-Related Disorders With Stapled Peptides” (Institute For Cancer Research d/b/a The Research Institute …, priority 2021, published 2024).

The target in one series is T1, talin rod R7R8 domains (Mus musculus, UniProt P26039).
T1 construct: talin rod R7R8 and talin head (residues 1-430) were measured using fluorophore-labeled peptides and recombinantly expressed, purified talin proteins; made in house
The experiment in a line: Fluorescent polarization (FP) binding assay, talin rod R7R8. As to conditions: S-TBS versus TBS, from FP Kd values. The procedure: (§1) To assess the binding affinities of S-TBS with talin, the Kd of TBS and S-TBS peptides with talin rod R7R8 and talin head (residues 1-430) were measured using fluorophore-labeled peptides and recombinantly expressed, purified talin proteins by FP assays. […] This gain of affinity may be attributed to the C8 staple as it stabilizes the helical structure of TBS, and the enhanced hydrophobic interaction between S-TBS and talin rod. The enhanced binding of S-TBS to talin further validates the design strategy of using stapled peptides as a potent competitive inhibitor.
(§2) Fluorescent Polarization: Mixtures were prepared of purified talin proteins at a series concentration (R7R8: 0.2 μM to 20 μM; THD/b3-THD: 5 μM to 100 μM), or buffer only, with 20 nM FITC-labeled S-TBS (New England Peptide) in a buffer containing 20 mM HEPES, pH 7.5, 100 mM NaCl, and 2 mM DTT. After five minutes of incubation, 20 μl of the reaction mix was added to individual wells of a 384-well assay plate (Corning) and then measured fluorescence polarization at room temperature using a plate reader. A […] as emission polarization filters. FP signals were normalized against buffer-only background and then fit to a single-site (saturating) binding model using SigmaPlot (Systat Software).

Series [1] concerns the target T2, talin head (residues 1-430) (Mus musculus, UniProt P26039).
T2 construct: talin rod R7R8 and talin head (residues 1-430) were measured; made in house
The experiment in a line: Fluorescent polarization (FP) binding assay, talin head. The procedure: as §1, §2

The test system of another series is CHO-A5 cells. The experiment in a line: Cell permeability assay (flow cytometry uptake of fluorophore-labelled peptide). Type of series: in vitro ADME. The procedure:
Assessing membrane permeability: CHO-A5 cells were treated with FAM-labelled WT-TBS (1, 10, and 50 μM), or with FITC-labelled stapled-TBS (1, 10, and 50 μM), and incubated for 30 minutes at 37° C. The cells were washed twice with phosphate-buffered saline (PBS), harvested in trypsin-EDTA, and centrifuged at 2,000 rpm for 5 minutes. The cells were resuspended in PBS and quantified with an LSR flow cytometer using 30,000 cells per measurement.
A common challenge for peptidomimetic drugs that target intracellular proteins is the poor cell membrane permeability. To assess the effect of the C8 staple on cell permeability, FITC-labeled S-TBS were incubated with CHO cells at various concentration and examined S-TBS uptake by flow cytometry. […] The assay was then performed using lower doses of peptides and quantified the signals for statistical analyses. […] In contrast, TBS requires a concentration of at least 5 μM for cell uptake (FIG. 3, Panel B).
Cell permeability assay: CHO-A5 cells were plated in 6-well dishes, and then treated with fluorophore labeled TBS or S-TBS peptides at indicated concentrations for 30 minutes at 37° C. The cells were then washed twice with phosphate-buffered saline (PBS), detached by adding a mixture of trypsin and […] (“trypsin-EDTA”) and harvested by spinning at 2,000 rpm for 5 minutes. The cells were resuspended in PBS and quantified with an LSR flow cytometer (525/50 filter, 488 nm laser) using 30,000 cells per measurement.
(Flow cytometry measures light scatter and fluorescence of single cells or particles in a stream.)

In series [2] the test system is integrin αIIbβ3. The experiment in a line: Integrin activation assay, wild-type talin head domain. As to conditions: CHO-A5 cells expressing GFP-tagged wild-type talin head domain; TBS 100 μM, S-TBS 10 and 100 μM, 30 minutes; PAC1 flow cytometry. Type of series: cell-based. The procedure:
(§3) Assessing integrin activation: CHO-A5 cells were transfected with GFP-tagged talin-head domain (residues 1-430, WT or W359A) and incubated for 24 hours at 37° C. The cells were subsequently treated with WT-TBS at 100 μM or Staple-TBS (at 10 and 100 μM) for 30 minutes at 37° C. and washed twice with PBS, harvested in trypsin-EDTA, and centrifuged at 2,000 rpm for 5 minutes. The cells were incubated in Tyrode's buffer (136.9 mM NaCl, 10 mM HEPES, 5.5 mM glucose, 11.9 mM NaHCO3, 2.7 mM KCl, 0.5 mM CaCl2), 1.5 mM MgCl2, and 0.4 mM NaH2PO4, pH 7.4) containing PAC1 antibody for 1 hour at 30° C. and then stained with Alexa 647 (goat anti-mouse IgM) for 30 minutes at RT. The cells were quantified with an LSR flow cytometer using 30,000 cells per measurement.
(§4) The effect of S-TBS on talin-induced activation of integrin αIIbβ3 was examined. CHO-A5 cells that stably express integrin αIIbβ3 were transfected with a green fluorescent protein-tagged talin head domain, treated with S-TBS or TBS, and then subjected flow cytometry analysis for integrin αIIbβ3 activity. […]
(§5) Integrin activation assays: CHO-A5 cells were transfected with talin-head domain, wild-type or W359A, and incubated for 24 hours at 37° C. […] The cells were quantified with a Beckton, Dickenson & Co. Biosciences LSR flow cytometer (660/20 filter, 640 nm laser) using 30,000 cells per measurement.

The subject of series [3] is integrin αIIbβ3. The experiment in a line: Integrin activation assay, inactive talin head mutant THD-W359A. As to conditions: CHO-A5 cells transfected with THD-W359A; TBS 100 μM, S-TBS 10 and 100 μM; PAC1 flow cytometry. Type of series: cell-based. How it is done:
as §3, §4, §5

The test system of another series is HEK-293 cells. The experiment in a line: Cell toxicity assay, HEK-293. As to conditions: 40 μM, treated one hour then washed away, viability at 24 and 48 hours. Type of series: cell-based. How it is done: (§6) The cell toxicity of the peptides was then examined. HEK, MCF-7, and HeLa were used. Cells were treated with S-TBS 40 μm for one hour. The S-TBS was then washed away and the viability measured at 24 and 48 hours. No impact on HEK, MCF-7, and HeLa cell growth was observed.

The test system of another series is MCF-7 cells. The experiment in a line: Cell toxicity assay, MCF-7. Type of series: cell-based. As to conditions: 40 μM, treated one hour then washed away, viability at 24 and 48 hours. How it is done: as §6
For another series, the system named is HeLa cells. The experiment in a line: Cell toxicity assay, HeLa. As to conditions: 40 μM, treated one hour then washed away, viability at 24 and 48 hours. It counts as cell-based. How it is done: as §6
Another series concerns CHO cell. The experiment in a line: Cell toxicity, CHO cell growth. Type of series: cell-based.
A further series deals with Jurkat T-cell. The experiment in a line: Cell toxicity, Jurkat T-cell growth. It counts as cell-based.

Entries after “also recorded” stand apart in the source; their conditions may differ. Bridge positions count the residues as written; N and C are the ends. Square brackets hold non-standard residues; d marks the D form. Peptide text beside a SMILES is read from it. S5 = C=CCCC[C@](C)(N)C(=O)O

T1 sequence (P26039 1359-1659 limits assumed): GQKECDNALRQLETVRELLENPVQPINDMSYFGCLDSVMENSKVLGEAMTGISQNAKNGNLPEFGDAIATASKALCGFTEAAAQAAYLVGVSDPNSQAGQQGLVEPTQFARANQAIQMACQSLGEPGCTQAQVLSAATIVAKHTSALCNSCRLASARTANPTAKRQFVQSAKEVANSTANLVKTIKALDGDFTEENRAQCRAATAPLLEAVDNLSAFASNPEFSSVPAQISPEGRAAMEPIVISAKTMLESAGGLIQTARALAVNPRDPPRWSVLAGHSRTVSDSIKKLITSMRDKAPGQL

In the case of `CC[C@H](C)[C@H](NC(=O)[C@H](CC(=O)O)NC(=O)[C@H](CCC(=O)O)NC(=O)[C@@H](N)CC(N)=O)C(=O)N[C@@H](CC(=O)O)C(=O)N[C@@H](CCC(N)=O)C(=O)N[C@@H](CCSC)C(=O)N[C@@H](Cc1ccccc1)C(=O)N[C@@H](CO)C(=O)N[C@H](C(=O)N[C@@H](CC(C)C)C(=O)N[C@@H](CC(C)C)C(=O)NCC(=O)N[C@@H](CCC(=O)O)C(=O)N[C@@]1(C)CCCC=CCCC[C@@](C)(C(=O)N[C@@H](CCC(N)=O)C(=O)N[C@@H](CO)C(=O)O)NC(=O)[C@H](CC(C)C)NC(=O)[C@H](CC(C)C)NC(=O)[C@H](CC(=O)O)NC1=O)[C@@H](C)O` [S-TBS, (Stp(15,19))H2N-NEDIDQMFSTLLGE(S5)DLL(S5)QS-OH] (H-NEDIDQMFSTLLGE[S5]DLL[S5]QS-OH; staple 15-19), the “fold stronger binding to R7R8 than TBS” value at talin rod R7R8 domains worked out at 6 fold. In [1] (FP assay, fluorophore-labeled peptide, purified recombinant talin head (residues 1-430), read-out: Kd, talin head domain), the equilibrium dissociation constant (Kd) (usually the constant that tells how readily two partners part at equilibrium) was determined as 30.3 ± 4.8 µM. In series [1] (S-TBS versus TBS, from FP Kd values), the “fold stronger binding to talin head than TBS” value stood at 3.5 fold. Further, the “fluorescence signal of treated cells (peptide uptake) compared with fluorophore-labelled TBS” value in the series with CHO-A5 cells (CHO cells, 1, 10 and 50 μM, 30 minutes at 37° C., FITC-labeled S-TBS) is given as “significantly stronger signal”. Also, the “concentration giving significant cell uptake” value in the series with CHO-A5 cells (CHO-A5 cells, lower doses, flow cytometry permeability index, fluorophore-labelled peptides) was 500 nM. The “integrin αIIbβ3 activity (talin-induced activation)” value in the series on integrin αIIbβ3 [2] was “significantly suppresses integrin αIIbβ3 activity in a dose-dependent manner”. For the same compound, in the series with integrin αIIbβ3 [3], the “integrin αIIbβ3 activity with inactive talin head THD-W359A” value is on record as “No inhibitory effect”. The “cell toxicity (viability / cell growth), HEK” value with HEK-293 cells is “No impact; also recorded: minimal cell toxicity”. Besides, the “cell toxicity (viability / cell growth), MCF-7” value in the series with MCF-7 cells was “No impact; also recorded: minimal cell toxicity”. Moreover, in the series with HeLa cells, the “cell toxicity (viability / cell growth), HeLa” value is reported as “No impact; also recorded: minimal cell toxicity”. Besides, in the series on CHO cell, the “impact on CHO cell growth” value is “no impact”. Further, the “impact on Jurkat T-cell growth” value with Jurkat T-cell is “no impact”.
